Among the data in patent US20240018154A1, “NEW INDAZOLE DERIVATIVES” (Hoffmann-La Roche Inc., priority 2020, published 2024) are IC50 values, retold here.

The IC50 is the concentration that inhibits the measured activity by half.

Where a name gives a salt, the structure may show the parent alone.

T1 sequence (P00533 25-1210 C797S/L858R): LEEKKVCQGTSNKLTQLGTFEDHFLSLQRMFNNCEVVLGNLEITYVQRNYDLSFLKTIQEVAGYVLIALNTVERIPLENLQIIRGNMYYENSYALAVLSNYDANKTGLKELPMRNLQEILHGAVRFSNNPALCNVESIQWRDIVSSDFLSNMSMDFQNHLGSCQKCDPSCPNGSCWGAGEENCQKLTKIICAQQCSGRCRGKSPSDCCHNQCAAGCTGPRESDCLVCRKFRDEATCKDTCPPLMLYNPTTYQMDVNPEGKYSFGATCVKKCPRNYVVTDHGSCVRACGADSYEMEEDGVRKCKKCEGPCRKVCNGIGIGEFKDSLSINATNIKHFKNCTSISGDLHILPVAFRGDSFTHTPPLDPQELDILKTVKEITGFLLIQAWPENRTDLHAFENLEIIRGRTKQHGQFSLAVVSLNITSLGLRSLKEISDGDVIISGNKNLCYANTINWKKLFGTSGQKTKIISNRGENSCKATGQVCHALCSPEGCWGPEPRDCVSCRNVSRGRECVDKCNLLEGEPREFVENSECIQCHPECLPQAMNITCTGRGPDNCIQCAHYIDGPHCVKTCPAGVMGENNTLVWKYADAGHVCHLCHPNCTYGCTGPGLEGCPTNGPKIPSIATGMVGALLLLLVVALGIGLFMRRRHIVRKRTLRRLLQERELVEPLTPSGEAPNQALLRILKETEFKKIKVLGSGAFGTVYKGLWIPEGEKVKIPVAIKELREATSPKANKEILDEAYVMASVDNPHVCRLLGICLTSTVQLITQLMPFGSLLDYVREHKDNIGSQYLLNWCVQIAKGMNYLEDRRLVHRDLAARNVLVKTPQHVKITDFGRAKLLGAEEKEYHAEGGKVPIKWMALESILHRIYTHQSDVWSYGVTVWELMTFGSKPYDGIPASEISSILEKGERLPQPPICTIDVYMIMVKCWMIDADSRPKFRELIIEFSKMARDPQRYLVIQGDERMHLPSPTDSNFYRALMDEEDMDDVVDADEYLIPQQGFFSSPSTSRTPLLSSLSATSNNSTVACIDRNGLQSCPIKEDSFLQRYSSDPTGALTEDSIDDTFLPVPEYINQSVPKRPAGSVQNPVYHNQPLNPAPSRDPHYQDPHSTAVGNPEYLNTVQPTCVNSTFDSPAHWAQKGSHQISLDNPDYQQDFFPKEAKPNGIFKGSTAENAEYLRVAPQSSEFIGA

The test concerns the target T1, EGFR LRCS (BaF3-LRCS cell line) (Homo sapiens, UniProt P00533, C797S/L858R).
T1 construct: host or cells: BaF3 (BaF3-LRCS engineered line, kept under puromycin)
The test is described as follows: HTRF Phospho EGFR LRCS assay (cellular). The class given is cell-based. Conditions: BaF3-LRCS cells, 4 hours incubation with compound, Phospho-EGFR HTRF readout. The protocol:
HTRF Phospho EGFR LRCS Assay (Cellular)
BaF3-LRCS cell line were obtained from Crownbio (San Diego, CA, USA). Cells were maintained at 37° C., 5% CO2 in RPMI ATCC (Gibco 31870)+2 mM Glutamine+0.5 μg/ml Puromycin supplemented with 10% fetal bovine serum (FBS) (Gibco).
Cells are transferred as above to Greiner Bio-One, Nr. 784-08 micro-titerplate at 20000 cells/well in 12.5 μl of growth medium/well after the plates had been pre-filled with 12.5 nl of DMSO solutions of the to be tested compounds (in dose response) or DMSO only. After spinning the plates at 300×g for 30 seconds the cells were incubated for 4 hours at 37 C, 5% CO2, 95% humidity. The cells were lysed by adding to the compound mix 4 μl/well of the supplemented lysis buffer (Cis-bio, Phospho-EGFR HTRF kit, 64EG1PEH), followed by incubation for 30 min at room temperature with shaking (400 rpm). The plates were then frozen and stored overnight at −80° C. On the next day and after thawing the plates, 4 μl of a mixture of anti-Phospho-EGFR Cryptate and of anti-Phospho-EGFR-d2 antibody solutions prepared in the supplied detection buffer was added to each well. The lidded plates were then incubated for 4 h at room temperature before reading the fluorescence emission at 616 and 665 nm using an Envision reader (Perkin Elmer). Data was analyzed in similar fashion as above using the normalized ratio of the 665 to 616 signals multiplied by 10000.
(Time-resolved FRET reads energy transfer from a long-lived donor to a nearby acceptor.)
`Cc1c(-c2ccc(C3CC(CN4CCC(O)CC4)C3)cc2)cc(C(F)F)c2cn(C(C(=O)Nc3nccs3)c3ncn4c3C[C@@H](F)C4)nc12` (stereo partly drawn) [Example 17, 2-[4-(Difluoromethyl)-6-[4-[3-[(4-hydroxy-1-piperidyl)methyl]cyclobutyl]phenyl]-7-methyl-indazol-2-yl]-2-[(6R)-6-fluoro-6,7-dihydro-5H-pyrrolo[1,2-c]imidazol-1-yl]-N-thiazol-2-yl-acetamide]: the IC50 is 30 nM.
For the compound `Cc1c(-c2ccc(C3CC(CN4CCC(CO)CC4)C3)cc2)cc(C(F)F)c2cn(C(C(=O)Nc3nccs3)c3ncn4c3C[C@@H](F)C4)nc12` (stereo partly drawn) [Example 15, 2-[4-(Difluoromethyl)-6-[4-[3-[[4-(hydroxymethyl)-1-piperidyl]methyl]cyclobutyl]phenyl]-7-methyl-indazol-2-yl]-2-[(6R)-6-fluoro-6,7-dihydro-5H-pyrrolo[1,2-c]imidazol-1-yl]-N-thiazol-2-yl-acetamide], the IC50 was found to be 24 nM.
`Cc1c(-c2ccc(CN(C)C3CCC(O)CC3)cc2)cc(C(F)F)c2cn(C(C(=O)Nc3nccs3)c3ncn4c3C[C@@H](F)C4)nc12` (stereo partly drawn) [Example 28, 2-[4-(Difluoromethyl)-6-[4-[[(4-hydroxycyclohexyl)-methyl-amino]methyl]phenyl]-7-methyl-indazol-2-yl]-2-[(6R)-6-fluoro-6,7-dihydro-5H-pyrrolo[1,2-c]imidazol-1-yl]-N-thiazol-2-yl-acetamide]: the IC50 was 34 nM.
`Cc1c(-c2ccc(N3CCN(CCO)CC3)cc2)cc(C(F)F)c2cn(C(C(=O)Nc3nccs3)c3ncn4c3C[C@@H](F)C4)nc12` (stereo partly drawn) [Example 20, 2-[4-(Difluoromethyl)-6-[4-[4-(2-hydroxyethyl)piperazin-1-yl]phenyl]-7-methyl-indazol-2-yl]-2-[(6R)-6-fluoro-6,7-dihydro-5H-pyrrolo[1,2-c]imidazol-1-yl]-N-thiazol-2-yl-acetamide]: the IC50 is 12 nM.
`CNCCc1ccc(-c2cc(C(F)F)c3cn(C(C(=O)Nc4nccs4)c4ncn5c4C[C@@H](F)C5)nc3c2C)cc1` (stereo partly drawn) [Example 3, 2-[4-(Difluoromethyl)-7-methyl-6-[4-[2-(methylamino)ethyl]phenyl]indazol-2-yl]-2-[(6R)-6-fluoro-6,7-dihydro-5H-pyrrolo[1,2-c]imidazol-1-yl]-N-thiazol-2-yl-acetamide Hydrochloride]: the IC50 turned out to be 18 nM.
As to `Cc1c(-c2ccc(N3CCOCC3)cc2)cc(C(F)F)c2cn(C(C(=O)Nc3nccs3)c3ncn4c3CCC4)nc12` (stereo not shown) [Example 8, 2-[4-(Difluoromethyl)-7-methyl-6-(4-morpholinophenyl)indazol-2-yl]-2-(6,7-dihydro-5H-pyrrolo[1,2-c]imidazol-1-yl)-N-thiazol-2-yl-acetamide], the IC50 is 17 nM.
Consider `Cc1c(-c2ccc(N3C[C@H]4CN(CC(C)F)C[C@H]4C3)cc2)cc(C(F)F)c2cn(C(C(=O)Nc3nccs3)c3ncn4c3C[C@@H](F)C4)nc12` (stereo partly drawn) [Example 29, 2-[6-[4-[(3aR,6aS)-2-(2-Fluoropropyl)-1,3,3a,4,6,6a-hexahydropyrrolo[3,4-c]pyrrol-5-yl]phenyl]-4-(difluoromethyl)-7-methyl-indazol-2-yl]-2-[(6R)-6-fluoro-6,7-dihydro-5H-pyrrolo[1,2-c]imidazol-1-yl]-N-thiazol-2-yl-acetamide], for which the IC50 stood at 28 nM.
With `Cc1c(-c2ccc(CN3CCC(CO)CC3)cc2)cc(C(F)F)c2cn(C(C(=O)Nc3nccs3)c3ncn4c3C[C@@H](F)C4)nc12` (stereo partly drawn) [Example 6, 2-[4-(Difluoromethyl)-6-[4-[[4-(hydroxymethyl)-1-piperidyl]methyl]phenyl]-7-methyl-indazol-2-yl]-2-[(6R)-6-fluoro-6,7-dihydro-5H-pyrrolo[1,2-c]imidazol-1-yl]-N-thiazol-2-yl-acetamide], the IC50 turned out to be 16 nM.
The figure for `Cc1c(-c2ccc(N3CCOCC3)nc2)cc(C(F)F)c2cn(C(C(=O)Nc3nccs3)c3ncn4c3C[C@@H](F)C4)nc12` (stereo partly drawn) [Example 21, 2-[4-(Difluoromethyl)-7-methyl-6-(6-morpholino-3-pyridyl)indazol-2-yl]-2-[(6R)-6-fluoro-6,7-dihydro-5H-pyrrolo[1,2-c]imidazol-1-yl]-N-thiazol-2-yl-acetamide] is 12 nM.
On to `Cc1c(-c2ccc(N3CCN4CCC3C4)cc2)cc(C(F)F)c2cn(C(C(=O)Nc3nccs3)c3ncn4c3C[C@@H](F)C4)nc12` (stereo partly drawn) [Example 13, 2-[6-[4-(1,4-Diazabicyclo[3.2.1]octan-4-yl)phenyl]-4-(difluoromethyl)-7-methyl-indazol-2-yl]-2-[(6R)-6-fluoro-6,7-dihydro-5H-pyrrolo[1,2-c]imidazol-1-yl]-N-thiazol-2-yl-acetamide], for which the IC50 amounted to 17 nM.
